The values below come from patent US7767685B2, “Adenosine A2B receptor antagonists” (King Pharmaceuticals Research and Development, Inc., priority 2006, dated 2010).

Some results are limits rather than exact numbers.

For orientation: Ki means a dissociation constant, usually derived from enzyme kinetics or from competition with a known ligand.

The target of this assay is T1, human A2B adenosine receptors (Homo sapiens, UniProt P29275).
T1 construct: expressed in transfected cells; host or cells: CHO cells (whole cells)
T1 sequence (P29275 1-332): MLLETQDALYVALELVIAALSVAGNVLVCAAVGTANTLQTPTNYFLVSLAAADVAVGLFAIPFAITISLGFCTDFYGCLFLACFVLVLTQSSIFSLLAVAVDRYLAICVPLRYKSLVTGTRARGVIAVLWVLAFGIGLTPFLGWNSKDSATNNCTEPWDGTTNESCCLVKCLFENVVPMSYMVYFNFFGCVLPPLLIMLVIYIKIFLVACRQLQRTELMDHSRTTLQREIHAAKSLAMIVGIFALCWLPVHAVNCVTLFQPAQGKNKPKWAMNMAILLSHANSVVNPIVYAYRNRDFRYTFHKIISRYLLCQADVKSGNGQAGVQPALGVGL
Briefly: Displacement of [3H]MRE2029F20 binding at human A2B adenosine receptors. The note with it: [3H]MRE2029F20 displacement, human A2B receptors (footnote: HEK293 cells; method: CHO cells), n = 3-6; geometric mean (95% confidence limits); read-out: Ki hA2B. Here is the method:
[…] (Naunyn-Schmied. Arch Pharm. 1998, 357: 1-9). Briefly, the cells are grown adherently and maintained in Dulbecco's Modified Eagles Medium with nutrient mixture F12 (DMEM/F12) without nucleosides, containing 10% fetal calf serum, penicillin (100 U/mL), streptomycin (100 μg/mL), L-glutamine (2 mM) and Geneticin (G418, 0.2 mg/ml) at 37° C. in 5% CO2/95% air. For membrane preparation the culture medium is removed and the cells are washed with phosphate-buffered saline and scraped off T75 flasks in ice-cold hypo tonic buffer (5 mM Tris HCl, 1 mM EDTA, pH 7.4). The cell suspension is homogenized with Polytron, the homogenate is spun for 10 min at 1000×g and the supernatant is then centrifuged for 30 min at 100,000×g. The membrane pellet is suspended in 50 mM Tris HCl buffer (pH 7.4) for A1 adenosine receptors, in 50 mM Tris HCl, 10 mM MgCl2 (pH 7.4) for A2A adenosine receptors, in 50 mM Tris HCl, 10 mM MgCl2, 1 mM EDTA (pH 7.4) for A2B and A3 adenosine receptors.
All new synthesized compounds have been tested to evaluate their affinity to human A1, A2A, A2B and A3 adenosine receptors. […] Pharmacol., 2000, 57: 968-975). Non-specific binding is determined in the presence of 10 μM of CHA and this is always ≦10% of the total binding. […] recombinant A2A adenosine receptors is performed using a suspension of membranes (50 μg of protein/assay) and at least 6-8 different concentrations of studied antagonists for an incubation time of 60 min at 4° C. Non-specific binding is determined in the presence of 1 μM ZM 241385 and is about 20% of total binding. […] Non-specific binding is defined as binding in the presence of 1 μM MRE 3029F20 and is about 25% of total binding. […] Non-specific binding is defined as binding in the presence of 1 μM MRE 3008F20 and is about 25% of total binding. Bound and free radioactivity are separated by filtering the assay mixture through Whatman GF/B glass fiber filters using a Micro-Mate 196 cell harvester (Packard Instrument Co.). The filter bound radioactivity is counted on a Top Count (efficiency 57%) with Micro-Scint 20.
The protein concentration is determined according to a Bio-Rad method (Bradford, Anal Biochem. 1976, 72: 248-254) with bovine albumin as a standard reference. Inhibitory binding constant, Ki, values are calculated from those of IC50 according to Cheng & Prusoff equation (Biochem. Pharmacol 1973, 22: 3099-3108): Ki=IC50/(1+[C*]/KD*) where [C*] is the concentration of the radioligand and KD* its dissociation constant. A weighted non linear least-squares curve fitting program LIGAND (Munson et al., Anal. Biochem 1980, 107: 220-239) is used for computer analysis of inhibition experiments Data are expressed as geometric mean with 95% confidence limits in parentheses. Examples of Animal Models
A general note: Loss of bound radioactivity is the signal in a displacement assay; it reports binding, not function.

On to `CCCn1c(=O)c2[nH]c(-c3cc(C)n(CC(=O)Nc4cccc(OC)c4)n3)nc2n(CCC)c1=O` [Example 14, 2-[3-(2,6-Dioxo-1,3-dipropyl-2,3,6,7-tetrahydro-1H-purin-8-yl)-5-methyl-pyrazol-1-yl]-N-(3-methoxylphenyl)-acetamide], for which the Ki was determined as 0.065 µM.

As to `CCCn1c(=O)c2[nH]c(-c3cc(C)n(CC(=O)Nc4ccc(C)cc4)n3)nc2n(CCC)c1=O` [Example 17, 2-[3-(2,6-Dioxo-1,3-dipropyl-2,3,6,7-tetrahydro-1H-purin-8-yl)-5-methyl-pyrazol-1-yl]-N-p-tolyl-acetamide], the Ki came to 0.056 µM.

For the compound `CCCn1c(=O)c2[nH]c(-c3ccn(CC(=O)Nc4ccc(Cl)cc4)n3)nc2n(CCC)c1=O` [Example 10, 2-[3-(2,6-Dioxo-1,3-dipropyl-2,3,6,7-tetrahydro-1H-purin-8-yl)-pyrazol-1-yl]-N-(4-chloro-phenyl)-acetamide], the inhibition constant Ki stood at 0.02 µM. The value for `CCCn1c(=O)c2[nH]c(-c3cc(C)n(CC(=O)Nc4ccc(C(C)CC)cc4)n3)nc2n(CCC)c1=O` (centres unmarked) [Example 12, 2-[3-(2,6-Dioxo-1,3-dipropyl-2,3,6,7-tetrahydro-1H-purin-8-yl)-5-methyl-pyrazol-1-yl]-N-(4-sec-butylphenyl)-acetamide] was more than 1 µM; that for `CCCn1c(=O)c2[nH]c(-c3cc(C)n(CC(=O)Nc4ccc(OC)c(OC)c4)n3)nc2n(CCC)c1=O` [Example 8, 2-[3-(2,6-Dioxo-1,3-dipropyl-2,3,6,7-tetrahydro-1H-purin-8-yl)-5-methyl-pyrazol-1-yl]-N-(3,4-dimethoxyphenyl)-acetamide] was 0.06 µM.

Turning to `CCCn1c(=O)c2[nH]c(-c3cc(C)n(CC(=O)Nc4ccc(OC)cc4)n3)nc2n(CCC)c1=O` [Example 6, 2-[3-(2,6-Dioxo-1,3-dipropyl-2,3,6,7-tetrahydro-1H-purin-8-yl)-5-methyl-pyrazol-1-yl]-N-(4-methoxyphenyl)-acetamide], the Ki is 0.012 µM. The same measure for `CCCn1c(=O)c2[nH]c(-c3cc(C)n(CC(=O)Nc4ccccc4)n3)nc2n(CCC)c1=O` [Example 1, 2-[3-(2,6-Dioxo-1,3-dipropyl-2,3,6,7-tetrahydro-1H-purin-8-yl)-5-methyl-pyrazol-1-yl]-N-phenyl-acetamide]: 0.015 µM; for `CCCn1c(=O)c2[nH]c(-c3cc(C)n(CC(=O)Nc4ccc(C)c(C)c4)n3)nc2n(CCC)c1=O` [Example 7, 2-[3-(2,6-Dioxo-1,3-dipropyl-2,3,6,7-tetrahydro-1H-purin-8-yl)-5-methyl-pyrazol-1-yl]-N-(3,4-dimethylphenyl)-acetamide]: 0.048 µM.

For `CCCn1c(=O)c2[nH]c(-c3cc(C)n(CC(=O)Nc4cccc(Cl)c4)n3)nc2n(CCC)c1=O` [Example 15, 2-[3-(2,6-Dioxo-1,3-dipropyl-2,3,6,7-tetrahydro-1H-purin-8-yl)-5-methyl-pyrazol-1-yl]-N-(3-chlorophenyl)-acetamide], the inhibitory constant (Ki) came out at 0.028 µM. For `CCCn1c(=O)c2[nH]c(-c3cc(C)n(CC(=O)Nc4ccc(F)cc4)n3)nc2n(CCC)c1=O` [Example 5, 2-[3-(2,6-Dioxo-1,3-dipropyl-2,3,6,7-tetrahydro-1H-purin-8-yl)-5-methyl-pyrazol-1-yl]-N-(4-fluoro-phenyl)-acetamide], the Ki was found to be 0.014 µM. Regarding `CCCn1c(=O)c2[nH]c(-c3nn(CC(=O)Nc4ccc(Cl)cc4)c(C)c3Cl)nc2n(CCC)c1=O` [Example 18, 2-[4-Chloro-3-(2,6-dioxo-1,3-dipropyl-2,3,6,7-tetrahydro-1H-purin-8-yl)-5-methyl-pyrazol-1-yl]-N-(4-chlorophenyl)-acetamide], the Ki is 0.222 µM. Take `CCCn1c(=O)c2[nH]c(-c3cc(C)n(CC(=O)Nc4ccc(Cl)c(Cl)c4)n3)nc2n(CCC)c1=O` [Example 16, 2-[3-(2,6-Dioxo-1,3-dipropyl-2,3,6,7-tetrahydro-1H-purin-8-yl)-5-methyl-pyrazol-1-yl]-N-(3,4-dichlorophenyl)-acetamide]: the Ki stood at 0.04 µM.

On to `CCCn1c(=O)c2[nH]c(-c3nn(CC(=O)Nc4ccc(Cl)cc4)c(C)c3Br)nc2n(CCC)c1=O` [Example 19, 2-[4-Bromo-3-(2,6-dioxo-1,3-dipropyl-2,3,6,7-tetrahydro-1H-purin-8-yl)-5-methyl-pyrazol-1-yl]-N-(4-chlorophenyl)-acetamide], for which the Ki turned out to be 0.25 µM. With `CCCn1c(=O)c2[nH]c(-c3cc(C)n(CC(=O)Nc4ccc(I)cc4)n3)nc2n(CCC)c1=O` [Example 2, 2-[3-(2,6-Dioxo-1,3-dipropyl-2,3,6,7-tetrahydro-1H-purin-8-yl)-5-methyl-pyrazol-1-yl]-N-(4-iodophenyl)-acetamide], the Ki was determined as 0.028 µM.
